Assay results as given in patent US9693971B2, “Compositions for alleviating gastrointestinal tract disorders or associated systemic disorders in ruminants and camelids” (FREIE UNIVERSITÄT BERLIN, priority 2012, dated 2017).
“Also recorded” adds a separate entry of the source. Like-named read-outs stand apart in the source and are kept apart here.

Experiments:
TRPA1 = TRPA1 (Homo sapiens, UniProt O75762); conditions: cited from earlier work
TRPV1 = TRPV1 (Homo sapiens, UniProt Q8NER1); conditions: cited from earlier work
TRPV3 = target: T1, TRPV3 (Homo sapiens, UniProt Q8NET8); conditions: cited from earlier work
T1 sequence (Q8NET8 1-790): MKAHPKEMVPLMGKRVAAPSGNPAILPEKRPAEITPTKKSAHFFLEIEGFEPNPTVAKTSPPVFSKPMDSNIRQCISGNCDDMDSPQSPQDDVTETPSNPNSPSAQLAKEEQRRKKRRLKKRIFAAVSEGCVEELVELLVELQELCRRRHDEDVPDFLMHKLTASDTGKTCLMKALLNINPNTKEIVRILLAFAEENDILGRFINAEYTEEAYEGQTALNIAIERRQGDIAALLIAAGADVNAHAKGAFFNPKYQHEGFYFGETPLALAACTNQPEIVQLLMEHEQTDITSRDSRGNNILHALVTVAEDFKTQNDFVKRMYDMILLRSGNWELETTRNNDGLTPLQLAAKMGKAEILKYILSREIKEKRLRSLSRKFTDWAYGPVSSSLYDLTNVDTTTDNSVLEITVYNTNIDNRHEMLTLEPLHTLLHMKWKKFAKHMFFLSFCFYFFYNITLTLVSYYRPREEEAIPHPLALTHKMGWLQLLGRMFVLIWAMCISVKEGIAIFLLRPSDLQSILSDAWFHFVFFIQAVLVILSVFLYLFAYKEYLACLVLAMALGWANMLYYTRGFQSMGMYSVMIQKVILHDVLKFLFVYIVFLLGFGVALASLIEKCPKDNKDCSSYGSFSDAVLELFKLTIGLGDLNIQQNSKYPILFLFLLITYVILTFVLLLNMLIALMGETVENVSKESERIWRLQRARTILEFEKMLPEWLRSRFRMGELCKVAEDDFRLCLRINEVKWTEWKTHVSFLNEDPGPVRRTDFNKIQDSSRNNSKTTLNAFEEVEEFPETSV

TRPM8 = TRPM8 (Homo sapiens, UniProt Q7Z2W7); conditions: cited from earlier work
[1] = tested on: rumen epithelium from cattle; assay: Ussing chamber: ammonium-induced transepithelial short-circuit current (Isc) across isolated rumen epithelium; format: cell-based; conditions: for influence on ammonium-induced conductivity / transport across rumen epithelium (profile in words): no concentration stated
Description: The experiments on the intact epithelium take place as already specified (Abdoun, Stumpff et al. 2005; Abdoun, Stumpff et al. 2010). The measuring techniques used are a combination of the Ussing chamber technique developed by Ussing (1949) and the microelectrode technique.
When examining epithelial transport processes with the Ussing chamber, the epithelium is installed in a special chamber, which makes it possible to rinse the two sides of the epithelium (apical: food side; basolateral: blood side) separately of each other with buffer solutions of various composition, wherein the electrophysiological parameters (current and voltage) across the epithelium are traced. Hereby, it is made possible to differentiate between the transport of an uncharged substance (e.g. ammonia, NH3) and the transport of a charged substance (e.g. ammonium, NH4^+), as the former takes place without a change in current and voltage, whereas the latter is coupled with the transfer of a charge and thus changes the transepithelial electrical parameters.
With the help of a special modification, the reaction of individual epithelia to solution changes, taking place very rapidly and smoothly, is also examined over time. Hereby, for example, the reproducibility of a pharmacological intervention on the same piece of epithelium can very well be examined. This modification of the classic Ussing chamber technique is particularly, albeit not exclusively, used for the comparative “screening” of the various substances which are subject of an aspect of the present invention.
The epithelium is horizontally clamped into a modified Ussing chamber, wherein the mucosal side faces upwards. The chamber made of plexi-glass has a cross-section surface of 0.79 cm^2, which is corrected to 1 cm^2. As a protection against damages on the edges of the epithelium, “edge damage”, a silicone ring is in each case placed between chamber and epithelium. The two resulting chambers (mucosal and serosal) are each supplied by their own perfusion system (4-channel-stand-pump, Ismatec SA). With three-way valves, an independent solution change between altogether eight solutions is possible in the two chambers. During storage, the solutions are gassed in their containers with 100% O2. To warm the solutions up to 37° C., the thin perfusion tubes run through a heat exchanger pump. The suction device (Masterflex R/S, Cole Parmer Instrument Company) present in both chambers guarantees a rapid and safe change of solution. In order to ensure that there are no solution change artefacts when adding agonists and antagonists, the substances are pipetted into the respective solution, wherein the gassing ensures a rapid mixing. In this way, pressure fluctuations or an interruption of the flow through the chamber can be safely precluded.
As in the conventional Ussing chamber technique, there are in each case two electrodes near the tissue and two electrodes distant from the tissue for measuring the transepithelial potential difference and the transepithelial current (Isc). The connections between the Ag/AgCl electrodes, which are filled with 3 M KCl, are established via agar bridges. Just as in Strecker (Strecker 2011), the measuring chamber is connected to a “voltage clamp” installation (Ussing chamber unit) in assembly with a microelectrode amplifier (both Biomedical Instruments Co., Germering). A micromanipulator (MF 500) installed above the measuring chamber offers the possibility to move the microelectrode in fine μm steps. Additionally, a microscope as well as a cold-light source are located above the apparatus.
Menthol (Sigma-Aldrich) was dissolved at a concentration of 1 mol·l^−1 in ethanol and pipetted into the used test solution containing ammonium. For an end concentration of 1 mmol·l^−1, 20 μl of this stock solution was added to 20 ml test solution; for 200 μmol·l^−1 correspondingly less. In control experiments, corresponding amounts of pure ethanol were added to the test solution.

Chain of TRPM8 (Q7Z2W7 whole entry, species assumed): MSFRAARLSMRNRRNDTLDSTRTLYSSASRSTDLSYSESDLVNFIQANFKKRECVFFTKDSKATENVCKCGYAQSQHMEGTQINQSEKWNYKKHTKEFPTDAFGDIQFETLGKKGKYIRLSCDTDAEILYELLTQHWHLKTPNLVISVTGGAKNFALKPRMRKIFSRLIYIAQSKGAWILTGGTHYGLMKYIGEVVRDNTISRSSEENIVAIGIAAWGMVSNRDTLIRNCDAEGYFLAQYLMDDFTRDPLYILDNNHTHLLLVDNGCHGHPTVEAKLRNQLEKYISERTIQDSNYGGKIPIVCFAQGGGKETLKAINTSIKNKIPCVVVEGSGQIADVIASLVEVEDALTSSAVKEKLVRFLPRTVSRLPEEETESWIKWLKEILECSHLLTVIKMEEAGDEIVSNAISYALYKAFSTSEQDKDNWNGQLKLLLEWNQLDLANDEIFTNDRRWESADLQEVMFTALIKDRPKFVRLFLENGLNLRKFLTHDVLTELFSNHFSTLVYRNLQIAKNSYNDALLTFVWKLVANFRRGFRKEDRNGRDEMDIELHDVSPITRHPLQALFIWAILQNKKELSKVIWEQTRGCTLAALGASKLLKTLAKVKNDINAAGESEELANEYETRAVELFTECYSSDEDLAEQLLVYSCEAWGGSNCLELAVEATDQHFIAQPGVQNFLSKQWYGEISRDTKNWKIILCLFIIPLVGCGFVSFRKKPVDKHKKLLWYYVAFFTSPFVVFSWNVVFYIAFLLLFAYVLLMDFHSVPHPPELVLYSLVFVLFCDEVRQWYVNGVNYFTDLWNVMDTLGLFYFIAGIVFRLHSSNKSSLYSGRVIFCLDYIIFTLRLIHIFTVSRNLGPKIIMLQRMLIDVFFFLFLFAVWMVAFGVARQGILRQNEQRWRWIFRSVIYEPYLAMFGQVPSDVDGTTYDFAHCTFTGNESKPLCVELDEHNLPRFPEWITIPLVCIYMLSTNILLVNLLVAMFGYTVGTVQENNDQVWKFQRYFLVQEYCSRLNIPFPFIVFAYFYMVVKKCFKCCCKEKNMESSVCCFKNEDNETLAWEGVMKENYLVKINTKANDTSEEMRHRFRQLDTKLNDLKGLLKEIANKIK
Chain of TRPV1 (Q8NER1 whole entry, species assumed): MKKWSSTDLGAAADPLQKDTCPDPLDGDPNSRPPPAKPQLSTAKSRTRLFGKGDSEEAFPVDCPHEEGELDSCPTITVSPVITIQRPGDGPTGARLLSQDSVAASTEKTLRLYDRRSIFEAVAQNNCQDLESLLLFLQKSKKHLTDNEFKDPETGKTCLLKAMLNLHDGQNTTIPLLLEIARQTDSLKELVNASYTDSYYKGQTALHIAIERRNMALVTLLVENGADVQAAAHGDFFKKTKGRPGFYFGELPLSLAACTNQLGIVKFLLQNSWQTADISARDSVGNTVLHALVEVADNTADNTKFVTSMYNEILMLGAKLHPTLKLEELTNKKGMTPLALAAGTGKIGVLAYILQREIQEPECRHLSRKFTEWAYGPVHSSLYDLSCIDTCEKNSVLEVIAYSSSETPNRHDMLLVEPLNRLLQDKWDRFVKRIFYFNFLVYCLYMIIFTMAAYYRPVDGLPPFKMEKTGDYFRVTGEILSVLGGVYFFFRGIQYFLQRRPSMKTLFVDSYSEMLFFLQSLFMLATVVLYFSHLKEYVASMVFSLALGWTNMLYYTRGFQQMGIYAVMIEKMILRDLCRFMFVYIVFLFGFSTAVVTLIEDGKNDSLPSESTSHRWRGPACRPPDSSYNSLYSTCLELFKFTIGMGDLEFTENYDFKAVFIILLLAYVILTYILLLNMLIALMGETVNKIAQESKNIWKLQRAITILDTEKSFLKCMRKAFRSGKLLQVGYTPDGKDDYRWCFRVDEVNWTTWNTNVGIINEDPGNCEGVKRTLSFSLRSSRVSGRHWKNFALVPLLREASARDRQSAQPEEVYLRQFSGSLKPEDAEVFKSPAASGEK
Chain of TRPA1 (O75762 whole entry, species assumed): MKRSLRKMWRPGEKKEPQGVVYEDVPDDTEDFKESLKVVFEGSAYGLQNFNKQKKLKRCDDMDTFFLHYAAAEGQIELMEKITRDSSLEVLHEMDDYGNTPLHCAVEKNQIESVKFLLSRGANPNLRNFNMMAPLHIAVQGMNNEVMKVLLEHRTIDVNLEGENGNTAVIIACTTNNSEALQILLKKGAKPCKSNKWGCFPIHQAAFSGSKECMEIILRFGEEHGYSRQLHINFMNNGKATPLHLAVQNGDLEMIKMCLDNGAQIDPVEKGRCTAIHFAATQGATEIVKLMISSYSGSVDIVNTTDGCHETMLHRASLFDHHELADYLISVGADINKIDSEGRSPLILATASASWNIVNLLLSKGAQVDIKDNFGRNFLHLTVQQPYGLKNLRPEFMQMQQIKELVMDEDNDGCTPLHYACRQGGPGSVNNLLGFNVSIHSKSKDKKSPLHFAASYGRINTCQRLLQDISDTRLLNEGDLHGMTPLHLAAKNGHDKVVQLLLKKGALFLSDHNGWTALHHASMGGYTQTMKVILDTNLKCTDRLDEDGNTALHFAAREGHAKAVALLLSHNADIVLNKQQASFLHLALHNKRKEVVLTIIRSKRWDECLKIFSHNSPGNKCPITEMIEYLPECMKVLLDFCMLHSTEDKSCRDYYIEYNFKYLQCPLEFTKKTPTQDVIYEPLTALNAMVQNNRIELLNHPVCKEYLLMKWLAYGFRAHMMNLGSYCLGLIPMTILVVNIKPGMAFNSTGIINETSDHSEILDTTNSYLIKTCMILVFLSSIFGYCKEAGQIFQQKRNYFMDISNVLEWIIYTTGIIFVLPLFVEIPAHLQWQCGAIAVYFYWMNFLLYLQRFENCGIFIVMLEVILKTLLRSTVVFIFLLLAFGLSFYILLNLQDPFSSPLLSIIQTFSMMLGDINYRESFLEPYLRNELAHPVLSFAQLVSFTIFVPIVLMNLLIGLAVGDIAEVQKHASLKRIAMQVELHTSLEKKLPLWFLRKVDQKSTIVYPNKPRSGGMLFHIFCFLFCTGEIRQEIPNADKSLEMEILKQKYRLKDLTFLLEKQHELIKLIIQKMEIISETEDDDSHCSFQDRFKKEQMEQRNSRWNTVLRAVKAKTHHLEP

Molecule | Effect on TRPA1 (TRPA1) | Effect on TRPV1 (TRPV1) | Effect on TRPM8 (TRPM8) | further results
C=CCS[S+]([O-])CC=C (stereo not drawn) [Allicin, allicin] | Agonist | – | – | –
C=CCN=C=S [Allyl isothiocyanate, allyl isothiocyanate] | Agonist | – | – | –
S=C=NCc1ccccc1 [Benzyl isothiocyanate, benzyl isothiocyanate] | Agonist | – | – | –
CC12CCC(CC1=O)C2(C)C (stereo not drawn) [Camphor, camphor] | Antagonist | Agonist | – | Effect on TRPV3 (TRPV3): nonspecific
C=C(C)[C@@H]1CCC(C)=C[C@H]1c1c(O)cc(CCCCC)cc1O [Cannabidiol, cannabidiol] | – | Agonist | – | –
Oc1cc2c(cc1O)CN(C(=S)NCCc1ccc(Cl)cc1)CCC2 [Capsazepine, capsazepine] | – | Antagonist | – | –
Cc1ccc(C(C)C)cc1O [Carvacrol, carvacrol] | Agonist | – | – | Effect on TRPA1 (TRPA1; listed as carvacrol): potent TRPA1 agonists; Effect on TRPV3 (TRPV3): Agonist
CC1CCC(C(C)(C)O)C(O)C1 (stereo not drawn) [Cis- and trans-p-menthane-3,8-diol, p-menthane-3,8-diol] | – | – | Agonist | –
CCO [Ethanol] | – | – | Antagonist | –
CC12CCC(CC1)C(C)(C)O2 [Eucalyptol, eucalyptol] | – | – | Agonist | Effect on TRPM8 (TRPM8; listed as eucalyptol): potent TRPM8 agonist
C=CCc1ccc(O)c(OC)c1 [Eugenol, eugenol] | Agonist | Agonist | Agonist | Effect on TRPA1 (TRPA1; listed as eugenol): potent TRPA1 agonists; Effect on TRPV3 (TRPV3): nonspecific
CC(C)=CCC/C(C)=C/CO [Geraniol, geraniol] | – | – | Agonist | Effect on TRPM8 (TRPM8; listed as geraniol): potent TRPM8 agonist
CC(CC=O)CCCC(C)(C)O (stereo not drawn) [Hydroxyl-citronellal, hydroxyl-citronellal] | – | – | Agonist | –
O=C1NC(c2cccc([N+](=O)[O-])c2)=CCN1c1ccccc1O [Icilin, icilin] | – | – | Agonist | –
CC(C)N=C=S [Isopropyl isothiocyanate, isopropyl isothiocyanate] | Agonist | – | – | –
C=C(C)[C@@H]1CC[C@@H](C)C[C@H]1O [Isopulegol, isopulegol] | – | – | Agonist | –
CC1(C)C[C@H]2C=C(C=O)[C@]3(C=O)C[C@]3(C)[C@H]2C1 [Isovelleral, isovelleral] | – | Agonist | – | –

Molecule | Effect on TRPA1 (TRPA1) | Effect on TRPV1 (TRPV1) | Effect on TRPM8 (TRPM8) | further results
C=C(C)[C@@H]1CC=C(C)C(=O)C1 [L-carvone, 1-carvone] | – | – | Agonist | –
C=CC(C)(O)CCC=C(C)C (stereo not drawn) [Linalool, linalool] | – | – | Agonist | –
CC(C)[C@@H]1CC[C@@H](C)CC1=O [Menthone, menthone] | – | – | Agonist | Effect on TRPM8 (TRPM8; listed as menthone): potent TRPM8 agonist
CC1CCC(C(C)C)C(OC(=O)C(C)O)C1 (stereo not drawn) [Menthyl lactate, menthyl lactate] | – | – | Agonist | –
CN=C=S [Methyl isothiocyanate, methyl isothiocyanate] | Agonist | – | – | –
N [NH4^+, ammonium] | – | – | – | transepithelial current, MV ([1]; 40 mM NH4^+ replacing NMDG+, n=37, NaCl before −2.43, after washout −2.68): −25.73 μA · cm^−2; transepithelial current, Median ([1]; 40 mM NH4^+ replacing NMDG+, n=37, NaCl median −3.60): −22.32 μA · cm^−2
CCCCCCCC/C=C\CCCCCCCC(=O)NCc1ccc(O)c(OC)c1 [Olvanil, olvanil] | – | Agonist | – | –
S=C=NCCc1ccccc1 [Phenylethyl isothiocyanate, phenylethyl isothiocyanate] | Agonist | – | – | –
CC1(C)CCC[C@]2(C)[C@@H](C=O)C(C=O)=CC[C@@H]12 [Polygodial, polygodial] | – | Agonist | – | –
C=C(C)[C@]12C[C@@H](C)[C@@]34O[C@](Cc5ccccc5)(O[C@@H]1[C@@H]3C=C(COC(=O)Cc1ccc(O)c(OC)c1)C[C@]1(O)C(=O)C(C)=C[C@@H]41)O2 [Resiniferatoxin, resiniferatoxin] | – | Agonist | – | –
C/C=C(/C)C(=O)O[C@H]1C(C)=C2[C@H]([C@@H]1OC(=O)CCCCCCC)[C@@](C)(OC(C)=O)C[C@H](OC(=O)CCC)[C@@]1(O)[C@H]2OC(=O)[C@@]1(C)O [Thapsigargin, thapsigargin] | – | Antagonist | – | –
COc1cc(CCC(C)=O)ccc1O [Vanillylacetone, vanillylacetone] | – | Agonist | – | –
COc1cc(CNC(=O)CCCC/C=C/C(C)C)ccc1O [capsaicin] | – | Agonist | – | influence on ammonium-induced conductivity / transport across rumen epithelium (profile in words) [1]: significantly influenced
O=CC=Cc1ccccc1 [cinnamaldehyde] | potent TRPA1 agonists; also recorded: Agonist | – | Antagonist | transepithelial current, MV ([1]; cinnamaldehyde (concentration not given) in 40 mM NH4^+, n=7, before −31.53, p = 0.313): −28.39 μA · cm^−2; transepithelial current, Median ([1]; cinnamaldehyde in 40 mM NH4^+, n=7, before −26.52): −24.03 μA · cm^−2; influence on ammonium-induced conductivity / transport across rumen epithelium (profile in words) [1]: inhibiting profile
COC(=O)c1ccccc1O [methyl salicylate] | potent TRPA1 agonists | – | – | influence on ammonium-induced conductivity / transport across rumen epithelium (profile in words) [1]: inhibiting profile; transepithelial current after addition (maximum reduction) ([1]; reduced from −25.44±1.8, n=4, not (yet) significant): −21.06±2.97 μA·cm^−2; Effect on TRPA1 (TRPA1; listed as Methyl salicilate): Agonist
COc1ccc(CCN(C)CCCC(C#N)(c2ccc(OC)c(OC)c2)C(C)C)cc1OC (stereo not drawn) [verapamil] | – | – | – | change of transepithelial current ([1]; 1 mmol·l^−1 added to solution containing ammonium): the current drops
evodiamine | – | Agonist | – | –
